Tests used:
Assay in all cases: relative viability (nuclei count vs DMSO), 5 days (fraction); higher = more cells survive
Doramapimod + Olaparib = compound: Cc1ccc(-n2nc(C(C)(C)C)cc2NC(=O)Nc2ccc(OCCN3CCOCC3)c3ccccc23)cc1 [Doramapimod] + O=C(c1cc(Cc2n[nH]c(=O)c3ccccc23)ccc1F)N1CCN(C(=O)C2CC2)CC1 [Olaparib] (partner 8 µM)
Outline: (§1)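 Lung cancer cell lines were pin-tool dosed in 1536-well plates on the day after seeding, with either a lone drug or a fixed anchor-drug dose plus five library-drug doses (not always all listed) in √10 steps. Nuclei were counted on 4× images after 5 days. Relative viability is the ratio of treated-well to vehicle-well nuclei counts, with each value a median of duplicate plates.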

RAF265 + Lapatinib = compound: Cn1c(Nc2ccc(C(F)(F)F)cc2)nc2cc(Oc3ccnc(-c4ncc(C(F)(F)F)[nH]4)c3)ccc21 [RAF265] + CS(=O)(=O)CCNCc1ccc(-c2ccc3ncnc(Nc4ccc(OCc5cccc(F)c5)c(Cl)c4)c3c2)o1 [Lapatinib] (partner 2 µM)
Outline: as §1

Doramapimod + Trametinib = compound: Cc1ccc(-n2nc(C(C)(C)C)cc2NC(=O)Nc2ccc(OCCN3CCOCC3)c3ccccc23)cc1 [Doramapimod] + CC(=O)Nc1cccc(-n2c(=O)n(C3CC3)c(=O)c3c(Nc4ccc(I)cc4F)n(C)c(=O)c(C)c32)c1 [Trametinib] (partner 0.02 µM)
Outline: as §1

IPA-3 + Alpelisib = compound: C1=CC=C2C(=C1)C=CC(=C2SSC3=C(C=CC4=CC=CC=C43)O)O [IPA-3] + Cc1nc(NC(=O)N2CCC[C@H]2C(N)=O)sc1-c1ccnc(C(C)(C)C(F)(F)F)c1 [Alpelisib] (partner 2 µM)
Outline: as §1

Cell Line: NCI-H2405
- relative viability (Doramapimod + Olaparib; first compound 0.02 µM): 0.912
- relative viability (Doramapimod + Olaparib; first compound 0.06325 µM): 0.828
- relative viability (Doramapimod + Olaparib; first compound 0.2 µM): 0.765
- relative viability (Doramapimod + Olaparib; first compound 0.6325 µM): 0.816
- relative viability (Doramapimod + Olaparib; first compound 2 µM): 0.836
- relative viability (RAF265 + Lapatinib; first compound 0.01 µM): 1.09
- relative viability (RAF265 + Lapatinib; first compound 0.03162 µM): 1.08
- relative viability (RAF265 + Lapatinib; first compound 0.1 µM): 0.924
- relative viability (RAF265 + Lapatinib; first compound 0.3162 µM): 0.999
- relative viability (RAF265 + Lapatinib; first compound 1 µM): 0.607
- relative viability (Doramapimod + Trametinib; first compound 0.02 µM): 0.613
- relative viability (Doramapimod + Trametinib; first compound 0.06325 µM): 0.618
- relative viability (Doramapimod + Trametinib; first compound 0.2 µM): 0.612
- relative viability (Doramapimod + Trametinib; first compound 0.6325 µM): 0.705
- relative viability (Doramapimod + Trametinib; first compound 2 µM): 0.581
- relative viability (IPA-3 + Alpelisib; first compound 0.2 µM): 0.815
- relative viability (IPA-3 + Alpelisib; first compound 0.6325 µM): 0.771
- relative viability (IPA-3 + Alpelisib; first compound 2 µM): 0.753
- relative viability (IPA-3 + Alpelisib; first compound 6.325 µM): 0.853
- relative viability (IPA-3 + Alpelisib; first compound 20 µM): 0.829

Cell Line: NCI-H3122
- relative viability (Doramapimod + Olaparib; first compound 0.02 µM): 0.694
- relative viability (Doramapimod + Olaparib; first compound 0.06325 µM): 0.62
- relative viability (Doramapimod + Olaparib; first compound 0.2 µM): 0.721
- relative viability (Doramapimod + Olaparib; first compound 0.6325 µM): 0.599
- relative viability (Doramapimod + Olaparib; first compound 2 µM): 0.599
- relative viability (RAF265 + Lapatinib; first compound 0.01 µM): 1.04
- relative viability (RAF265 + Lapatinib; first compound 0.03162 µM): 1.11
- relative viability (RAF265 + Lapatinib; first compound 0.1 µM): 1.07
- relative viability (RAF265 + Lapatinib; first compound 0.3162 µM): 0.953
- relative viability (RAF265 + Lapatinib; first compound 1 µM): 0.98
- relative viability (Doramapimod + Trametinib; first compound 0.02 µM): 0.26
- relative viability (Doramapimod + Trametinib; first compound 0.06325 µM): 0.206
- relative viability (Doramapimod + Trametinib; first compound 0.2 µM): 0.216
- relative viability (Doramapimod + Trametinib; first compound 0.6325 µM): 0.219
- relative viability (Doramapimod + Trametinib; first compound 2 µM): 0.279
- relative viability (IPA-3 + Alpelisib; first compound 0.2 µM): 0.797
- relative viability (IPA-3 + Alpelisib; first compound 0.6325 µM): 0.798
- relative viability (IPA-3 + Alpelisib; first compound 2 µM): 0.804
- relative viability (IPA-3 + Alpelisib; first compound 6.325 µM): 0.856
- relative viability (IPA-3 + Alpelisib; first compound 20 µM): 0.776

Cell Line: PC-3 [JPC-3]
- relative viability (Doramapimod + Olaparib; first compound 0.02 µM): 1.3
- relative viability (Doramapimod + Olaparib; first compound 0.06325 µM): 1.16
- relative viability (Doramapimod + Olaparib; first compound 0.2 µM): 1.22
- relative viability (Doramapimod + Olaparib; first compound 0.6325 µM): 1.33
- relative viability (Doramapimod + Olaparib; first compound 2 µM): 1.14
- relative viability (RAF265 + Lapatinib; first compound 0.01 µM): 0.423
- relative viability (RAF265 + Lapatinib; first compound 0.03162 µM): 0.471
- relative viability (RAF265 + Lapatinib; first compound 0.1 µM): 0.475
- relative viability (RAF265 + Lapatinib; first compound 0.3162 µM): 0.38
- relative viability (RAF265 + Lapatinib; first compound 1 µM): 0.36
- relative viability (Doramapimod + Trametinib; first compound 0.02 µM): 0.849
- relative viability (Doramapimod + Trametinib; first compound 0.06325 µM): 0.726
- relative viability (Doramapimod + Trametinib; first compound 0.2 µM): 0.748
- relative viability (Doramapimod + Trametinib; first compound 0.6325 µM): 0.839
- relative viability (Doramapimod + Trametinib; first compound 2 µM): 0.845
- relative viability (IPA-3 + Alpelisib; first compound 0.2 µM): 1.04
- relative viability (IPA-3 + Alpelisib; first compound 0.6325 µM): 1.05
- relative viability (IPA-3 + Alpelisib; first compound 2 µM): 1.04
- relative viability (IPA-3 + Alpelisib; first compound 6.325 µM): 0.972
- relative viability (IPA-3 + Alpelisib; first compound 20 µM): 1.08

Cell Line: PC-14
- relative viability (Doramapimod + Olaparib; first compound 0.02 µM): 0.351
- relative viability (Doramapimod + Olaparib; first compound 0.06325 µM): 0.36
- relative viability (Doramapimod + Olaparib; first compound 0.2 µM): 0.342
- relative viability (Doramapimod + Olaparib; first compound 0.6325 µM): 0.281
- relative viability (Doramapimod + Olaparib; first compound 2 µM): 0.269
- relative viability (RAF265 + Lapatinib; first compound 0.01 µM): 0.339
- relative viability (RAF265 + Lapatinib; first compound 0.03162 µM): 0.331
- relative viability (RAF265 + Lapatinib; first compound 0.1 µM): 0.403
- relative viability (RAF265 + Lapatinib; first compound 1 µM): 0.383
- relative viability (Doramapimod + Trametinib; first compound 0.02 µM): 0.756
- relative viability (Doramapimod + Trametinib; first compound 0.06325 µM): 0.864
- relative viability (Doramapimod + Trametinib; first compound 0.2 µM): 0.782
- relative viability (Doramapimod + Trametinib; first compound 0.6325 µM): 0.856
- relative viability (Doramapimod + Trametinib; first compound 2 µM): 0.619
- relative viability (IPA-3 + Alpelisib; first compound 0.2 µM): 1.15
- relative viability (IPA-3 + Alpelisib; first compound 0.6325 µM): 0.885
- relative viability (IPA-3 + Alpelisib; first compound 2 µM): 1
- relative viability (IPA-3 + Alpelisib; first compound 6.325 µM): 0.88
- relative viability (IPA-3 + Alpelisib; first compound 20 µM): 1.1

Cell Line: RERF-LC-KJ
- relative viability (Doramapimod + Olaparib; first compound 0.02 µM): 0.916
- relative viability (Doramapimod + Olaparib; first compound 0.06325 µM): 0.864
- relative viability (Doramapimod + Olaparib; first compound 0.2 µM): 1.08
- relative viability (Doramapimod + Olaparib; first compound 0.6325 µM): 1.01
- relative viability (Doramapimod + Olaparib; first compound 2 µM): 0.887
- relative viability (RAF265 + Lapatinib; first compound 0.01 µM): 0.837
- relative viability (RAF265 + Lapatinib; first compound 0.03162 µM): 0.776
- relative viability (RAF265 + Lapatinib; first compound 0.1 µM): 0.827
- relative viability (RAF265 + Lapatinib; first compound 0.3162 µM): 0.784
- relative viability (RAF265 + Lapatinib; first compound 1 µM): 0.679
- relative viability (Doramapimod + Trametinib; first compound 0.02 µM): 0.969
- relative viability (Doramapimod + Trametinib; first compound 0.06325 µM): 0.881
- relative viability (Doramapimod + Trametinib; first compound 0.2 µM): 0.901
- relative viability (Doramapimod + Trametinib; first compound 0.6325 µM): 0.984
- relative viability (Doramapimod + Trametinib; first compound 2 µM): 0.885
- relative viability (IPA-3 + Alpelisib; first compound 0.2 µM): 0.933
- relative viability (IPA-3 + Alpelisib; first compound 0.6325 µM): 0.807
- relative viability (IPA-3 + Alpelisib; first compound 2 µM): 0.83
- relative viability (IPA-3 + Alpelisib; first compound 6.325 µM): 0.668
- relative viability (IPA-3 + Alpelisib; first compound 20 µM): 0.928

Cell Line: SK-LU-1
- relative viability (Doramapimod + Olaparib; first compound 0.02 µM): 0.487
- relative viability (Doramapimod + Olaparib; first compound 0.06325 µM): 0.43
- relative viability (Doramapimod + Olaparib; first compound 0.2 µM): 0.39
- relative viability (Doramapimod + Olaparib; first compound 0.6325 µM): 0.503
- relative viability (Doramapimod + Olaparib; first compound 2 µM): 0.388
- relative viability (RAF265 + Lapatinib; first compound 0.01 µM): 0.685
- relative viability (RAF265 + Lapatinib; first compound 0.03162 µM): 0.669
- relative viability (RAF265 + Lapatinib; first compound 0.1 µM): 0.669
- relative viability (RAF265 + Lapatinib; first compound 0.3162 µM): 0.61
- relative viability (RAF265 + Lapatinib; first compound 1 µM): 0.34
- relative viability (Doramapimod + Trametinib; first compound 0.02 µM): 0.469
- relative viability (Doramapimod + Trametinib; first compound 0.06325 µM): 0.593
- relative viability (Doramapimod + Trametinib; first compound 0.2 µM): 0.588
- relative viability (Doramapimod + Trametinib; first compound 0.6325 µM): 0.624
- relative viability (Doramapimod + Trametinib; first compound 2 µM): 0.555
- relative viability (IPA-3 + Alpelisib; first compound 0.2 µM): 1.49
- relative viability (IPA-3 + Alpelisib; first compound 2 µM): 0.974
- relative viability (IPA-3 + Alpelisib; first compound 6.325 µM): 0.859
- relative viability (IPA-3 + Alpelisib; first compound 20 µM): 0.739

Cell Line: SK-MES-1
- relative viability (Doramapimod + Olaparib; first compound 0.02 µM): 0.707
- relative viability (Doramapimod + Olaparib; first compound 0.06325 µM): 0.694
- relative viability (Doramapimod + Olaparib; first compound 0.2 µM): 0.638
- relative viability (Doramapimod + Olaparib; first compound 0.6325 µM): 0.683
- relative viability (Doramapimod + Olaparib; first compound 2 µM): 0.607
- relative viability (RAF265 + Lapatinib; first compound 0.01 µM): 0.468
- relative viability (RAF265 + Lapatinib; first compound 0.03162 µM): 0.449
- relative viability (RAF265 + Lapatinib; first compound 0.1 µM): 0.366
- relative viability (RAF265 + Lapatinib; first compound 0.3162 µM): 0.349
- relative viability (RAF265 + Lapatinib; first compound 1 µM): 0.269
- relative viability (Doramapimod + Trametinib; first compound 0.02 µM): 0.55
- relative viability (Doramapimod + Trametinib; first compound 0.06325 µM): 0.56
- relative viability (Doramapimod + Trametinib; first compound 0.2 µM): 0.477
- relative viability (Doramapimod + Trametinib; first compound 0.6325 µM): 0.519
- relative viability (Doramapimod + Trametinib; first compound 2 µM): 0.483
- relative viability (IPA-3 + Alpelisib; first compound 0.2 µM): 1.17
- relative viability (IPA-3 + Alpelisib; first compound 0.6325 µM): 0.88
- relative viability (IPA-3 + Alpelisib; first compound 2 µM): 0.868
- relative viability (IPA-3 + Alpelisib; first compound 20 µM): 0.951

Cell Line: SW 1573
- relative viability (Doramapimod + Olaparib; first compound 0.02 µM): 0.446
- relative viability (Doramapimod + Olaparib; first compound 0.06325 µM): 0.425
- relative viability (Doramapimod + Olaparib; first compound 0.2 µM): 0.456
- relative viability (Doramapimod + Olaparib; first compound 0.6325 µM): 0.546
- relative viability (Doramapimod + Olaparib; first compound 2 µM): 0.433
- relative viability (RAF265 + Lapatinib; first compound 0.01 µM): 1.15
- relative viability (RAF265 + Lapatinib; first compound 0.03162 µM): 1.18
- relative viability (RAF265 + Lapatinib; first compound 0.1 µM): 1.18
- relative viability (RAF265 + Lapatinib; first compound 0.3162 µM): 1.04
- relative viability (RAF265 + Lapatinib; first compound 1 µM): 0.824
- relative viability (Doramapimod + Trametinib; first compound 0.02 µM): 0.524
- relative viability (Doramapimod + Trametinib; first compound 0.06325 µM): 0.429
- relative viability (Doramapimod + Trametinib; first compound 0.2 µM): 0.451
- relative viability (Doramapimod + Trametinib; first compound 0.6325 µM): 0.452
- relative viability (Doramapimod + Trametinib; first compound 2 µM): 0.514
- relative viability (IPA-3 + Alpelisib; first compound 0.2 µM): 0.891
- relative viability (IPA-3 + Alpelisib; first compound 0.6325 µM): 0.777
- relative viability (IPA-3 + Alpelisib; first compound 2 µM): 0.8
- relative viability (IPA-3 + Alpelisib; first compound 6.325 µM): 0.726
- relative viability (IPA-3 + Alpelisib; first compound 20 µM): 0.988
